One assay concerns the target Ba/F3_KRAS^G12D cells (Homo sapiens, UniProt P01116, G12D, cells depend on it). Nature of the assay: Ba/F3 KRAS G12D cell proliferation assay (CellTiter-Glo). The class given is cell-based. Conditions: treated for 3 days, cell-titer Glo, cell growth inhibition, read-out: BaF3_KRAS^G12D IC50. As for the experimental part: Ba/F3_KRAS^G12D cells (KYinno, China) were generated by transducing Ba/F3 parental cells with the recombinant KRAS^G12D lentivirus and followed by 1 ug/mL of puromycin selection and IL3 depletion. […] Cells were seeded at a density of 5×10^3 per well into 96-well plate and incubated overnight. Serial diluted compounds were added to each well. Cells were treated with the compounds for 3 days, after which cell-titer Glo reagent (Promega #G7572) was used to assess cell proliferation. The luminescence signal was then collected on Tecan Spark plate reader. […] Cell growth inhibition of IC50 is calculated with the equation of Y=Bottom+(Top−Bottom)/(1+10^((Log IC50−X)*Hill Slope))
For orientation: ATP-based viability assays read luminescence as a measure of living cells.

The target of assay [1] is recombinant human KRAS^G12D protein (Homo sapiens, UniProt P01116, G12D). Nature of the assay: Temperature-dependent Fluorescence (TdF) KRAS G12D protein binding assay. The settings on record: 6 μM KRAS^G12D protein, 10 μM compound, Sypro Orange; Kd calculated from the fluorescent shift. As to the method:
The Temperature-dependent Fluorescence (TdF) assay was used to analyze binding affinity of compound to recombinant human KRAS^G12D protein. The TdF assay was conducted in the 96-well-based real-time fluorescence plate reader (ABI 7500 or Roche LightCycler 480). Fluorescent dye Sypro Orange (Sigma) was used to monitor the protein folding-unfolding transition. Protein-compound binding was gauged by the shift in the unfolding transition temperature (ΔTm) acquired with and without compound. Each reaction sample consists of 6 μM KRAS^G12D Protein, 10 μM compound, and Sypro Orange dye (in 1% DMSO) in 20 μL reaction buffer (25 mM HEPES pH 7.5, 150 mM NaCl, 10 mM MgCl2). […] Binding affinity (Kd value) was calculated based on the degree of fluorescent shift of the protein with and without compound.

Broadly, the Kd is the constant that tells how readily two partners part at equilibrium.

recombinant human KRAS^G12D protein, sequence (P01116 1-188 isoform P01116-2 G12D): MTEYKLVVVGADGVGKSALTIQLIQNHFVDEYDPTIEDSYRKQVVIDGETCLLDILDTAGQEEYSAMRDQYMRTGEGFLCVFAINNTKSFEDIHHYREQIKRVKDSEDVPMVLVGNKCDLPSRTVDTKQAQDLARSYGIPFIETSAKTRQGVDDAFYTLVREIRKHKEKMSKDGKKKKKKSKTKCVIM
Ba/F3_KRAS^G12D cells, sequence (P01116 whole entry G12D): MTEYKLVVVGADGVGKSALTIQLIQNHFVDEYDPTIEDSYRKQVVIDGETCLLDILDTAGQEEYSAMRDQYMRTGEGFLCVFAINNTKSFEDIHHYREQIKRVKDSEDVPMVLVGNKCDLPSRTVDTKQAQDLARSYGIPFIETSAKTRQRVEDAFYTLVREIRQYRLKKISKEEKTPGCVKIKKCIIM

Take `Oc1ccc2ccccc2c1-c1c(Cl)cc2c(N3CC4CCC(C3)N4)nc(OCC34CCCN3CCC4)nc2c1F` [Compound 70]: the GI50 on Ba/F3_KRAS^G12D cells was above 5000 nM. In addition, the dissociation constant Kd in assay [1] was 500 to 5000 nM.
Take `CN1CCC[C@H]1COc1nc(N2CC3CCC(C2)N3)c2cc(Cl)c(-c3nc(N)cc4ccccc34)c(F)c2n1` [Compound 27]: at Ba/F3_KRAS^G12D cells, the GI50 lay in the range of 500 to 5000 nM. Further, in assay [1], the equilibrium dissociation constant (Kd) is above 5000 nM.
The matching figures for `CN1CCC[C@H]1COc1nc(N2CC3CCC(C2)N3)c2cc(Cl)c(-c3cc(O)cc4ccccc34)c(F)c2n1` [Compound 2]: 500 to 5000 nM and below 500 nM.
In the same order, the values of `CN1CCC[C@H]1COc1nc(-c2cnc(N)s2)c2cc(Cl)c(-c3cc(O)cc4cccc(Cl)c34)c(F)c2n1` [Compound 121] are above 5000 nM and above 5000 nM.
In the same order, the values of `Oc1cc(-c2c(Cl)cc3c(N4CC5CCC(C4)N5)nc(OC[C@@]45CCCN4C[C@H](F)C5)nc3c2F)c2c(Cl)cccc2c1` (single isomer, unassigned) [Compound 104] are 500 to 5000 nM and above 5000 nM.
Regarding `CN1CCC[C@H]1COc1nc(N2CC3(CCNC3)C2)c2cc(Cl)c(-c3cc(O)cc4cccc(Cl)c34)c(F)c2n1` [Compound 19], on Ba/F3_KRAS^G12D cells, the GI50 is above 5000 nM. In addition, in assay [1], the Kd was above 5000 nM.
Take `CN(C)CC1CN(c2nc(N3CC4CCC(C3)N4)c3cc(Cl)c(-c4cc(O)cc5ccccc45)c(F)c3n2)C1` [Compound 51]: on Ba/F3_KRAS^G12D cells, the GI50 was 500 to 5000 nM. The Kd in assay [1] is above 5000 nM.
In the same order, the values of `Oc1cc(-c2c(Cl)cc3c(N4CC5CCC(C4)N5)nc(OCC45CCCN4CCC5)nc3c2F)c2ccccc2c1` [Compound 85] are below 500 nM and below 500 nM.
Take `Oc1cc(-c2c(Cl)cc3c(N4CCNCC4)nc(OC[C@@]45CCCN4C[C@H](F)C5)nc3c2F)c2ccccc2c1` [Compound 126]: the GI50 on Ba/F3_KRAS^G12D cells lay within 500 to 5000 nM. The dissociation constant Kd in assay [1] was 500 to 5000 nM.
In the case of `Cc1cc(N)nc(-c2c(Cl)cc3c(N4CC5CCC(C4)N5)nc(OC[C@@]45CCCN4C[C@H](F)C5)nc3c2F)c1C(F)(F)F` [Compound 142], the GI50 at Ba/F3_KRAS^G12D cells was below 500 nM. Further, the Kd in assay [1] is below 500 nM.
For the molecule `N#Cc1cc2c(N3CC4CCC(C3)N4)nc(OC[C@@]34CCCN3C[C@H](F)C4)nc2c(F)c1-c1cc(O)cc2cccc(Cl)c12` (single isomer, unassigned) [Compound 120], the GI50 on Ba/F3_KRAS^G12D cells was below 500 nM. For the same molecule, the dissociation constant Kd in assay [1] is below 500 nM.
Take `C[C@H]1CNCCN1c1nc(OC[C@@H]2CCCN2C)nc2c(F)c(-c3cc(O)cc4cccc(Cl)c34)c(Cl)cc12` [Compound 22]: the GI50 at Ba/F3_KRAS^G12D cells was in the range of 500 to 5000 nM. For the same molecule, in assay [1], the Kd is above 5000 nM.
For the molecule `Oc1cc(-c2c(Cl)cc3c(N4CC5CCC(C4)N5)nc(OC[C@@]45CCCN4C[C@H](F)C5)nc3c2F)c2c(Cl)c(F)ccc2c1` [Compound 74], the GI50 at Ba/F3_KRAS^G12D cells is below 500 nM. The dissociation constant Kd in assay [1] was below 500 nM.
Take `CN1CCC[C@H]1COc1nc(N2CC3CCCC(C2)N3)c2cc(Cl)c(-c3cc(O)cc4cccc(Cl)c34)c(F)c2n1` [Compound 11]: on Ba/F3_KRAS^G12D cells, the GI50 was 500 to 5000 nM. Moreover, the Kd in assay [1] was 500 to 5000 nM.
On to `Oc1cc(-c2c(Cl)cc3c(N4CC5CCC(C4)N5)nc(OC[C@@]45CCCN4C[C@H](F)C5)nc3c2F)c2ccccc2c1` (single isomer, unassigned) [Compound 107], for which, on Ba/F3_KRAS^G12D cells, the GI50 is below 500 nM. For the same molecule, in assay [1], the Kd was below 500 nM.
For the molecule `C#Cc1c(F)ccc2cc(O)cc(-c3c(Cl)cc4c(N5CC6CCC(C5)N6)nc(OC[C@@]56CCCN5C[C@H](F)C6)nc4c3F)c12` [Compound 146], on Ba/F3_KRAS^G12D cells, the GI50 is below 500 nM. Further, the dissociation constant (Kd) in assay [1] is below 500 nM.
`CCc1cccc2cc(O)cc(-c3c(Cl)cc4c(N5CC6CCC(C5)N6)nc(OC[C@@]56CCCN5C[C@H](F)C6)nc4c3F)c12` (single isomer, unassigned) [Compound 134]: the GI50 at Ba/F3_KRAS^G12D cells fell in the range of 500 to 5000 nM. Also, the equilibrium dissociation constant (Kd) in assay [1] was above 5000 nM.
In the same order, the values of `CN(C)CCCOc1nc(N2CC3CCC(C2)N3)c2cc(Cl)c(-c3cc(O)cc4ccccc34)c(F)c2n1` [Compound 5] are 500 to 5000 nM and 500 to 5000 nM.

Source of the values: patent US20230242544A1, “QUINAZOLINE COMPOUNDS, PREPARATION METHODS AND USES THEREOF” (INVENTISBIO CO., LTD., priority 2020, published 2023).
